{
  "source": "patent US20240003908A1",
  "about": "“POLYOL BIOMARKERS FOR CONGENITAL DISORDERS OF GLYCOSYLATION” (Mayo Foundation for Medical Education and Research, priority 2020, published 2024)",
  "test_system": "child with PMM2-CDG",
  "test": "Single patient (P1) study: clinical efficacy (ICARS, NPCRS, BMI, weight)",
  "type": "in vivo, human",
  "experimental": "Prospectively collected clinical and laboratory data in 24 PMM2-CDG patients: The genetic, laboratory, metabolic, and clinical data of 24 PMM2-CDG patients were evaluated (TABLES 2A and 2B). Disease severity was assessed by Nijmegen Pediatric CDG Rating Scale (NPCRS), (most severe=82; mild (0-14), moderate (15-25), severe (>26)) (Achouitar et al., J Inherit Metab Dis 34:923-927, 2011; and Martinez-Monseny et al., Ann Neurol 85:740-751, 2019). Patient P1 and twin patients P4 and P5 also were discussed elsewhere (Qian et al., JIMD Rep 56:27-33, 2020; and Jaeken et al., Ped Res 14:179, 1980). P1, enrolled in a single IND clinical trial, was additionally evaluated by the International cooperative ataxia rating scale (ICARS) (Trouillas et al., J Neurol Sci 145:205-211, 1997), which assesses limb ataxia, dysarthria, posture and gait disturbances, and oculomotor disorders (0=normal; 100=most severe). Urinary polyols including sorbitol and mannitol were analyzed by GC/MS in 23 out of the 24 PMM2-CDG patients (patient P6 was deceased). In addition, functional in vitro data was collected from the fibroblasts of P1-P6, P8, P10, P17, P19, and P24.\nStudy design: An open label, single patient (P1) compassionate use study was designed to assess the safety and tolerability of oral epalrestat therapy in a child with PMM2-CDG.\nPatient assessment: Prior to the first dose of epalrestat and at 1, 2, 3, 6, 8, 9, 12 months during treatment, concomitant medications and vital signs were recorded and the patient was evaluated using the NPCRS. In addition, blood was drawn for serum chemistry, hematology, and plasma levels of epalrestat. Urine was collected for polyol measurement at baseline and twice over the course of 12 months of therapy.\nDrug administration: Epalrestat was administered orally, 3 times per day (TID) before meals in a divided dose (0.8 mg/kg/day; 5 mg TID) of epalrestat (Ono Pharmaceuticals, Osaka, Japan) starting on Day 1 of the study.\nSafety and efficacy: Safety measures included vital signs, change in CBC, liver function (INR, bilirubin, transaminases, and albumin) in blood, change in liver elastography, and following the pharmacokinetic profile of epalrestat. The efficacy of epalrestat was studied by clinical follow up (physical exam, NPCRS, ICARS), standard laboratory tests, and transferrin glycoform analysis by mass spectrometry.",
  "data": [
    {"smiles": "CC(/C=C1\\SC(=S)N(CC(=O)O)C1=O)=C\\c1ccccc1", "note": "[epalrestat]", "values": [
      {"measurement": "body mass index (BMI)", "setting": "patient P1, 12-month-follow-up, previous trough 14.8 (30th percentile)", "value": 18.5},
      {"measurement": "ICARS score", "setting": "patient P1, epalrestat 0.8 mg/kg/day, within 12 months, from a score of 56", "value": 42},
      {"measurement": "NPCRS score", "setting": "patient P1, months 6, 9, and 12, baseline 21-24", "value": "20-21"}
    ]}
  ]
}
